From patent US20250304952A1, “DNA ELEMENT RESPONSIVE TO EXTRACHROMOSOMAL DNA IN CANCER CELLS” (The Board of Trustees of the Leland Stanford Junior …, priority 2021, published 2025)

Columns and labels:
Type in all cases: cell-based, human
[1] = tested on: ecDNA hubs in COLO320-DM; test: ecDNA clustering by interphase DNA FISH, autocorrelation g(r); details: 500 nM, 6 hours
Text: The Oligopaint FISH probe libraries were constructed as described previously 51 Each oligo consists of a 40 nucleotide (nt) homology to the hg19 genome assemble designed from the algorithm developed from the laboratory of Dr. Ting Wu (https://oligopaints.hms.harvard.edu/). Each library subpool consists of a unique sets of primer pairs for orthogonal PCR amplification and a 20 nt T7 promoter sequence for in vitro transcription and a 20 nt region for reverse transcription. Individual Oligopaint probes were generated by PCR amplification, in vitro transcription, and reverse transcription, in which ssDNA oligos conjugated with ATTO488 and ATTO647 fluorophores were introduced during the reverse transcription step. The Oligopaint covered genomic regions (hg19) used in this study are as follows: chr8: 116967673-118566852 (hg19_COLO_nonecDNA_1.5Mbp), chr8: 127435083-129017969 (hg19_COLO_ecDNA_1.5Mbp), chr8: 128729248-128831223 (hg19_PC3_ecDNA1_100 kb). A ssDNA oligo pool was ordered and synthesized from Twist Bioscience (San Francisco, CA). 15 mm #1.5 round glass coverslips (Electron Microscopy Sciences) were pre-rinsed with anhydrous ethanol for 5 min, air dried, and coated with L-poly lysine solution (100 μg/mL) for at least 2 hours. Fully dissociated ColoDM320 or PC3 cells were seeded onto the coverslips and recovered for at least 6 hours before experiments. Cells were fixed with 4% (v/v) methanol free paraformaldehyde diluted in 1×PBS at room temperature for 10 min. Then cells were washed 2× with 1×PBS and permeabilized in 0.5% Triton-X100 in 1×PBS for 30 min. After 2× wash in 1×PBS, cells were treated with 0.1M HCl for 5 min, followed by 3× washes with 2×SSC and 30 min incubation in 2×SSC+0.1% Tween20 (2×SSCT)+50% (v/v) formamide (EMD Millipore, cat #S4117). […]
To analyze the clustering of ecDNAs, we applied the autocorrelation function as described previously58 in Matlab (2019). g(r) estimates the probability of detecting another ecDNA signal at increasing distances from the viewpoint of an index ecDNA signal and is equal to 1 for a uniform, random distribution. Specifically, the pair auto-correlation function g(r^→) was calculated by the fast Fourier transform (FFT) method described by the equations below.
N(r^→) is the auto-correlation of a mask matrix that has the value of 1 inside the nucleus used for normalization. […] Autocorrelation functions were calculated first by converting the Cartesian coordinates to polar coordinates by Matlab cart2pol( ) function, binning by radius and by averaging within the assigned bins. […]

[2] = tested on: MYC in SNU16; test: Oncogene RNA measured by RT-qPCR in SNU16 (MYC); details: 500 nM JQ1, 6 hours
Description: (§1) Cells were then treated for 6 hours with 500 nM JQ1 in DMSO unless otherwise indicated (Sigma-Aldrich SML1524) or an equivalent volume of DMSO.
(§2) RNA was extracted using RNeasy Plus mini Kit (QIAGEN 74136). Purified RNA was quantified by Nanodrop (Thermo Fisher). For RT-qPCR, 50 ng of RNA, 1× Brilliant II qRT-PCR mastermix with 1 μL RT/RNase block (Agilent 600825), and 200 nM forward and reverse primer were used. Each Ct value was measured using Lightcycler 480 (Roche) and each mean dCt was averaged from duplicate qRT-PCR reaction and performed in biological triplicate. Relative MYC RNA level (RT-qPCR primers MYC_exon3_fw and MYC_exon3_rv) was calculated by ddCt method compared to 18S and GAPDH controls (RT-qPCR primers GAPDH_fw, GAPDH_rv, 18S_fw, 18S_rv). P values were calculated using a Student's t-test by comparing the relative fold change of biological triplicates.

[3] = tested on: MYC mRNA in COLO320-DM cells; test: MYC RNA measured by RT-qPCR in COLO320-DM; details: 500 nM, 6 hours
Description: as §1, §2
(§3) Approximately 0.6×10^6 COLO320-DM or COLO-320-HSR cells were plated in 6 well plates and cultured under standard conditions for 24 hours. Cells were then treated for 6 hours with one of the following: 500 nM JQ1 (Sigma-Aldrich SML1524), 500 nM MS645 (Sigma Aldrich SML2549), 1 μM THZ-1 (Selleck chemicals S7549), 20 μM SGC-SCP30 (Selleck chemicals S7256), 10 μM OICR-9429 (Selleck chemicals S7833), 50 μM MI-3 (Selleck chemicals S7619), 2 μM trichostatin A (Selleck chemicals S1045), or DMSO. […]

[4] = tested on: MYC mRNA in COLO320-HSR cells; test: MYC RNA measured by RT-qPCR in COLO320-HSR; details: 500 nM, 6 hours
Description: as §1, §2, §3

[5] = tested on: FGFR2 in SNU16; test: Oncogene RNA measured by RT-qPCR in SNU16 (FGFR2); details: 500 nM JQ1, 6 hours
[6] = tested on: covalently-linked MYC copies in COLO320-HSR; test: Interphase DNA FISH of chromosomal MYC amplicon (HSR), autocorrelation g(r); details: 500 nM, 6 hours

Cc1sc2c(c1C)C(c1ccc(Cl)cc1)=N[C@@H](CC(=O)OC(C)(C)C)c1nnc(C)n1-2 [JQ1]
ecDNA hub clustering (interphase DNA FISH, autocorrelation g(r)) [1]: dispersed ecDNA hubs
ecDNA-derived transcription of MYC [2]: reduced
MYC mRNA level [3]: preferentially lowered
MYC mRNA level [4]: no significant effect
ecDNA-derived transcription of FGFR2 [5]: reduced
spatial distribution of covalently-linked MYC copies [6]: did not alter
